For 16 molecules, Activity results are on record in ChEMBL document CHEMBL4414642, “Buxaustroines A-N, a Series of 17(13→18)abeo-Cycloartenol Triterpenoidal Alkaloids from Buxus austro-yunnanensis and Their Cardioprotective Activities” (J Nat Prod, 2019).

In series [1] the test system is H9c2. The experiment in a line: Cardioprotective activity against rat H9c2 cells assessed as inhibition of doxorubicin-induced reduction in cell viability at 0.5 uM preincubated for 30 mins followed by doxorubicin treatment and measured after 48 hrs by CCK8 assay. It is filed as functional, cell-based.
Series [2] has as its system H9c2. The experiment in a line: Cardioprotective activity against rat H9c2 cells assessed as inhibition of doxorubicin-induced reduction in cell viability at 1 uM preincubated for 30 mins followed by doxorubicin treatment and measured after 48 hrs by CCK8 assay. It is filed as functional, cell-based.
Series [3] has as its system H9c2. The experiment in a line: Cytotoxicity against rat H9c2 cells at 1 uM after 48 hrs by CCK-8 assay. In kind it is cell-based. The settings on record: h9c2, 48 h.

Molecules are shown by their SMILES. Activity calls are given as the source filed them. The rule behind the calls is not given here.

With `C=C1[C@@H](N(C)C)CC[C@@]23C[C@]24CC[C@]2(O)C[C@H](CC)C(=O)C[C@@]2(C)[C@@H]4CC[C@@H]13`, the outcome with H9c2 [1] and in the series on H9c2 [2] was inactive. Also, in the series with H9c2 [3], the Activity entry was “Non-Toxic”.

Turning to `C=C1[C@@H](NC)CC[C@@]23C[C@]24CCC2=C[C@](O)(CC)C(=O)C[C@@]2(C)[C@@H]4CC[C@@H]13`, the Activity result with H9c2 [3] is listed as “Non-Toxic”.

Regarding `CCC1=C[C@@]2(O)CC[C@@]34C[C@]35CC[C@H](NC)C(C)(C)[C@@H]5C=C[C@H]4[C@]2(C)CC1=O`, the result in the series on H9c2 [1] and with H9c2 [2] was inactive. Besides, the Activity entry in the series with H9c2 [3] is given as “Non-Toxic”.

For the molecule `CCC1=C[C@H]2CC[C@@]34C[C@]35CC[C@H](NC)C(C)(C)[C@@H]5C[C@H](OC(C)=O)[C@H]4[C@]2(C)CC1=O`, the Activity result in the series on H9c2 [3] was “Non-Toxic”.

`CCC1=C[C@H]2CC[C@@]34C[C@]35CC[C@H](NC)C(C)(C)[C@@H]5C=C[C@H]4[C@]2(C)CC1=O`: the outcome in the series on H9c2 [1] was Active. Further, in the series on H9c2 [3], the Activity result is “Non-Toxic”.

`C=C1[C@@H](N(C)C)CC[C@@]23C[C@]24CC[C@]2(O)C=C(CC)C(=O)C[C@@]2(C)[C@@H]4CC[C@@H]13`: the outcome with H9c2 [1] and in the series with H9c2 [2] was inactive. Further, the Activity result in the series on H9c2 [3] is given as “Non-Toxic”.

In the case of `CC[C@H]1C[C@@]2(O)CC[C@@]34C[C@]35CC[C@H](NC)C(C)(C)[C@@H]5CC[C@H]4[C@]2(C)CC1=O`, the outcome in the series on H9c2 [1] and in the series on H9c2 [2] was inactive. Further, the Activity result with H9c2 [3] is “Non-Toxic”.

With `CCC1=C[C@H]2CC[C@@]34C[C@]35CC[C@H](N(C)C)[C@@H](C)[C@@H]5CC[C@H]4[C@]2(C)CC1=O`, the outcome with H9c2 [1] and in the series with H9c2 [2] was Active. For the same molecule, the Activity result with H9c2 [3] was “Non-Toxic”.

Regarding `C/C=C1/C(=O)C[C@@]2(C)[C@@H]3CC[C@H]4C(C)(C)[C@@H](NC)CC[C@]45C[C@@]35CC[C@]12C`, the outcome with H9c2 [1] was Active. In addition, the Activity result in the series on H9c2 [3] is listed as “Non-Toxic”.

As for `CCC1=CC2=CC[C@@]34C[C@]35CC[C@H](NC)C(C)(C)[C@@H]5CC[C@H]4[C@]2(C)CC1=O`, the outcome in the series on H9c2 [1] was Active. The Activity entry with H9c2 [3] is reported as “Non-Toxic”.

`CC[C@H]1C=C2CC[C@@]34C[C@]35CC[C@H](NC)C(C)(C)[C@@H]5C=C[C@H]4[C@]2(C)C[C@@H]1O`: in the series on H9c2 [3], the Activity result was “Non-Toxic”.

As to `C=C1[C@@H](NC)CC[C@@]23C[C@]24CC=C2C=C(CC)C(=O)C[C@@]2(C)[C@@H]4CC[C@@H]13`, the result in the series with H9c2 [1] was Active. The Activity result in the series on H9c2 [3] was “Non-Toxic”.

In the case of `C=C1[C@@H](NC)CC[C@@]23C[C@]24CC[C@@H]2C=C(CC)C(=O)C[C@@]2(C)[C@@H]4CC[C@@H]13`, in the series on H9c2 [1], the outcome was Active. In addition, the Activity result in the series on H9c2 [3] is “Non-Toxic”.

As to `CCC1=C[C@H]2CC[C@@]34C[C@]35CC[C@H](NC)[C@@H](C)[C@@H]5CC[C@H]4[C@]2(C)CC1=O`, the result in the series with H9c2 [1] was Active. In addition, the Activity result in the series with H9c2 [3] is listed as “Non-Toxic”.

As for `C=C1[C@@H](NC)CC[C@@]23C[C@]24CC[C@]2(O)C[C@H](CC)C(=O)C[C@@]2(C)[C@@H]4CC[C@@H]13`, the outcome in the series on H9c2 [1] and in the series with H9c2 [2] was inactive. Also, in the series on H9c2 [3], the Activity entry is reported as “Non-Toxic”.

Regarding `CN[C@@H](C)[C@H]1[C@H](O)C[C@@]2(C)[C@@H]3CC[C@H]4C(C)(C)[C@@H](NC)CC[C@]45C[C@@]35CC[C@]12C`, the result with H9c2 [2] was Active. Also, the Activity result with H9c2 [3] is “Non-Toxic”.
